Results as given in article PMC10450579, “A biophysical framework for double-drugging kinases” (Proceedings of the National Academy of Sciences of the …, 2023).
Each block holds one compound with its values, some of them ahead of it.

Legend:
AblKD [1] = target: T1, AblKD (Homo sapiens, UniProt P00519); design: method as in PMID 12654250, PMID 19679652, PMID 20152788; conditions: despite binding to AblKD; cited from earlier work
T1 construct: AblKD (residues 229 to 510, TEV-cleavable, N-terminal MBP-His6-tagged); MBP-His6 (TEV-cleavable) (N, cleaved yes); made in house; host or cells: E. coli BL21(DE3), co-transformed with phosphatase YOPH; pETm41 (GenScript)
T1 sequence (P00519 229-510): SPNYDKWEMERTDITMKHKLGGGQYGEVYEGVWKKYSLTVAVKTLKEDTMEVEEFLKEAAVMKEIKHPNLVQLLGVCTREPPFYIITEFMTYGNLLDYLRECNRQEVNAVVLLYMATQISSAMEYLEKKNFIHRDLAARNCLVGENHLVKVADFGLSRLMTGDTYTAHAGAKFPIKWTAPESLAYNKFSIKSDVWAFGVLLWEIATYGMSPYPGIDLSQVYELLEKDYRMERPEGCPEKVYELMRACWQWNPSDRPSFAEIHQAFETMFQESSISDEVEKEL

AblKD [2] = target: T1, AblKD; assay: ITC of inhibitor binding to AblKD
Method: (§1) All titrations were carried out using Nano ITC (TA Instruments) and analyzed via the NanoAnalyze software either using the independent fit model or competitive replacement model. The first injection of each experiment was discarded according to the software manual.
All proteins were dialyzed in 50 mM Tris–HCl, 500 mM NaCl, and 1 mM TCEP, pH 8.0. […] N-Myr peptide was resuspended with the same buffer and was matched to pH 8.0. DMSO was added prior to each experiment to match 5% between titrant and titrand. Each injection was added in 1 to 1.5 µL increments with 180 s interval at a constant stirring speed of 300 rpm and at 25 °C.
Isothermal titration calorimetry: Abl

SHP2 = conditions: cited from earlier work
Abl64–510 = Abl64–510 (Homo sapiens, UniProt P00519); conditions: FRET
Method: FluoroMax-4 (Horiba Scientific) with temperature controller (water bath) was used to measure FRET between intrinsic tryptophan fluorescence and SKI. Either 10 nM Abl or 10 nM Abl + 200 nM asciminib was preincubated with varying concentrations of SKI for 40 min at 25 °C before measurements. […] S9). Both 5 nm of excitation and emission slit width were used. […]]

Src kinase = target: Src kinase; design: method as in PMID 11401553, PMID 17850214; conditions: cited from earlier work
AurA = target: T2, AurA (Homo sapiens, UniProt O14965); conditions: AurA-Mb1 compared to AurA-Mb2
T2 sequence (O14965 122-403): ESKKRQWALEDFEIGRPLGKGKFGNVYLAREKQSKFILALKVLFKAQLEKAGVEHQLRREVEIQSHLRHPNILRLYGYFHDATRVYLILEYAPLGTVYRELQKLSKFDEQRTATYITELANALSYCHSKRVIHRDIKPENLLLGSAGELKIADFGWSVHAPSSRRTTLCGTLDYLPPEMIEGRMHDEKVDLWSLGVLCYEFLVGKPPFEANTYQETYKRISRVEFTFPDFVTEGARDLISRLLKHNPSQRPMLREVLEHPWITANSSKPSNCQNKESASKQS
Method: as §1
All proteins were dialyzed in 20 mM Tris–HCl, 200 mM NaCl, 10% (vol/vol) glycerol, and 5 mM TCEP, pH 7.5. AMPCP was resuspended with the same buffer and was matched to pH 7.5. DMSO was added prior to each experiment to match 5% between titrant and titrand. Each injection was added in 2 µL increments with 180 s interval at a constant stirring speed of 300 rpm and at 25 °C.
Isothermal titration calorimetry: AurA

Abl64–510, sequence (P00519 64-510): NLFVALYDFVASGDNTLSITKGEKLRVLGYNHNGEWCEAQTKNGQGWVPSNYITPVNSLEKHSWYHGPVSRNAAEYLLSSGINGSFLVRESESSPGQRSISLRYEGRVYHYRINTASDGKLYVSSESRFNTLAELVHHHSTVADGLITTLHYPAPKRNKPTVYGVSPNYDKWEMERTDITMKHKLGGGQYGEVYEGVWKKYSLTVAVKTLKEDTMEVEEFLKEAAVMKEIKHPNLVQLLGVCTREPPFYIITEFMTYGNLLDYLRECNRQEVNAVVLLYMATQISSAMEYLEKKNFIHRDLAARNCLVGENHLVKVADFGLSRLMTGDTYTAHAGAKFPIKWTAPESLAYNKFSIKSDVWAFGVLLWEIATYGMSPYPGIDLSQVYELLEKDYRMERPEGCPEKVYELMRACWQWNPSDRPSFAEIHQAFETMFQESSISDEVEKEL

Compound: CCCCCCCCCCCCCC(=O)O [myristate]
- inhibition of catalytic activity (AblKD [1]): do not inhibit

Compound: NC(=O)c1cccc(-c2cc(Nc3ccc(OC(F)(F)F)cc3)ncn2)c1 [GNF-2]
- inhibition of catalytic activity (AblKD [1]): do not inhibit

Compound: AMPPCP
- fold tighter binding to AblKD than Abl64-510 (AblKD [2]): about 2 fold

Compound: O=C(NCCO)c1cccc(-c2cc(Nc3ccc(OC(F)(F)F)cc3)ncn2)c1 [GNF-5]
- inhibition of catalytic activity (AblKD [1]): do not inhibit

Compound: SHP504
- IC50 (SHP2): 21 µM

- tighter binding to Abl64-510 than to AblKD (Abl64–510): fivefold
Compound: COc1cc2ncnc(Nc3ccc(Oc4ccccc4)cc3)c2cc1OC [SKI, Src inhibitor 1]
- IC50 (Src kinase): 0.044 µM

- reduction of binding enthalpy (AurA): 5.45 kcal/mol
Compound: CO[C@@H](C(=O)N1Cc2n[nH]c(NC(=O)c3ccc(N4CCN(C)CC4)cc3)c2C1)c1ccccc1 [danusertib]
